Experimental data as given in US20230295157A1, “3-(1H-IMIDAZOL-2-YL)-2,3,8,8A-TETRAHYDROINDOLIZIN-5(1H)-ONE DERIVATIVES USEFUL AS FACTOR XIA INHIBITORS” (JANSSEN PHARMACEUTICA NV, priority 2020, published 2023).
Read-outs that look alike come from different tables or passages of the source.

Key:
[1] = target: Factor XIa (Homo sapiens (Human), UniProt P03951); experiment: Factor XIa inhibition assay (FLINT) utilizing a fluorophore-quencher pair peptide substrate; assay type: biochemical; details: 30 min preincubation, kinetic reads over 30 min, read-out: FXIa Kin Inh IC50
Summary of the method: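 FXIa ([…]) preincubated 30 min with compound (11-point 3-fold dilution, top 100 nM, 2% DMSO), then 15 μM quenched FXI Arg146-based peptide added; Tris pH 7.5, CaCl2, BSA, CHAPS. Fluorescence 485/520 nm read kinetically every 5 min over 30 min at RT; IC50 by 4-parameter fit.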

[2] = target: human plasma kallikrein (Homo sapiens (Human), UniProt P03952); experiment: Kallikrein inhibition assay (FLINT) utilizing a quenched AMC peptide substrate; assay type: biochemical; details: 30 min preincubation, kinetic reads over 30 min, Z-Gly-Pro-Arg-AMC substrate 50 μM; read-out: Kallikrein Kin Inh IC50
Summary of the method: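 Fluorogenic Z-Gly-Pro-Arg-AMC cleavage (50 μM substrate, 2 nM kallikrein, Tris pH 7.5, CaCl2, BSA, CHAPS, 2% DMSO) read kinetically at 340/440 nm for 30 min after 30-min compound pre-incubation. Compounds in 11-point 3-fold series from 1 μM; percent inhibition fitted to four-parameter equation for IC50.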

[3] = 5Fam-KLTRAETV-K5Tamra substrate 15 μM

Factor XIa, sequence (P03951 388-625): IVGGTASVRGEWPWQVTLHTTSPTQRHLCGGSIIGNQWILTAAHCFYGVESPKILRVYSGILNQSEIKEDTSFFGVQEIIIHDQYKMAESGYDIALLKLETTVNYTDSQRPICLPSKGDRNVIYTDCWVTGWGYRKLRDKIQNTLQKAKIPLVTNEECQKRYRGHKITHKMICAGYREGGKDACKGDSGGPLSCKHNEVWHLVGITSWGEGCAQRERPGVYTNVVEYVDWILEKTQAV
Factor XIa, sequence (P03951 19-387 partner): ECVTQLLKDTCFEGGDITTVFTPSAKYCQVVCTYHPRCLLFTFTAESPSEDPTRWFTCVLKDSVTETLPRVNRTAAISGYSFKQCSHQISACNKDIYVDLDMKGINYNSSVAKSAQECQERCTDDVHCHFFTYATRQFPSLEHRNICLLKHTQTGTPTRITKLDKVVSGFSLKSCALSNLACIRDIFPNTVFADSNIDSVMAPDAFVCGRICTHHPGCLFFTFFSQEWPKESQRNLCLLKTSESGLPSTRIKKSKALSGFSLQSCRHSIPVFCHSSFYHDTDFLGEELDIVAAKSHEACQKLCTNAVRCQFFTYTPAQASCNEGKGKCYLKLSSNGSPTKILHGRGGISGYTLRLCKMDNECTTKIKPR
human plasma kallikrein, sequence (P03952 391-638): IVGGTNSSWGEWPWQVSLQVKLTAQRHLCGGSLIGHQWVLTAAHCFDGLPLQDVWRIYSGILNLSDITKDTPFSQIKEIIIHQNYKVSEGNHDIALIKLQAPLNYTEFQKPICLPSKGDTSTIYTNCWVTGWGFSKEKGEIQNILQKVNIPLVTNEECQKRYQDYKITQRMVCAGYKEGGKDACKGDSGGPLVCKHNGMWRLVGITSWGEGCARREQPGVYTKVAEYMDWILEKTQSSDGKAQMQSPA
human plasma kallikrein, sequence (P03952 20-390 partner): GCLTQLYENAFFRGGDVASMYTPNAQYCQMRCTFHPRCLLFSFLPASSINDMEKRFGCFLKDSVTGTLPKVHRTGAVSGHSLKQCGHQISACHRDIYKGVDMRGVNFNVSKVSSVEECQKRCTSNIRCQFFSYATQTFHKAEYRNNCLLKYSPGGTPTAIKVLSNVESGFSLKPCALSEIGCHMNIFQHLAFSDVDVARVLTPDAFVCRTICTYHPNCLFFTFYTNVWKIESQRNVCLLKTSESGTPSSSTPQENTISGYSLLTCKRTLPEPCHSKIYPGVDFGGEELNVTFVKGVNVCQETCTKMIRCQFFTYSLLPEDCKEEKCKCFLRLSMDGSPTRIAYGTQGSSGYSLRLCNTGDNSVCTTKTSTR

Row | IC50 [1, 3] [nM] | IC50 [2] [nM] | IC50 ([1]; 5Fam-[…]-K5Tamra substrate 15 μM) [nM] | Compound
1 | 0.4 | 1.7 |  | O=C1Nc2ccc(-c3cnc([C@@H]4CC[C@@H]5CC(c6c(-n7cnnn7)ccc(Cl)c6F)=CC(=O)N54)[nH]3)c(F)c2CO1 (single isomer, unassigned) [Example 118, 6-(24(3*S,8a*R)-7-(3-chloro-2-fluoro-6-(1H-tetrazol-1-yl)phenyl)-5-oxo-1,2,3,5,8,8a-hexahydroindolizin-3-yl)-1H-imidazol-5-yl)-5-fluoro-1,4-dihydro-2H-benzo[d][1,3]oxazin-2-one]
2 | 45.8 | 150 |  | CCOC(=O)Nc1ncccc1-c1c[nH]c([C@@H]2CC[C@H]3CC(c4c(-n5cnnn5)ccc(Cl)c4F)=CC(=O)N32)n1 [Example 262, Ethyl N-[3-[2-[(3S,8aS)-7-[3-chloro-2-fluoro-6-(tetrazol-1-yl)phenyl]-5-oxo-2,3,8,8a-tetrahydro-1H-indolizin-3-yl]-1H-imidazol-4-yl]-2-pyridyl]carbamate]
3 | 0.6 | 3.4 |  | NC(=O)c1ccc(-c2cnc([C@@H]3CC[C@@H]4CC(c5c(-n6cnnn6)ccc(Cl)c5F)=CC(=O)N43)[nH]2)c(F)c1 [Example 196, 4-(2-((3S,8aR)-7-(3-chloro-2-fluoro-6-(1H-tetrazol-1-yl)phenyl)-5-oxo-1,2,3,5,8,8a-hexahydroindolizin-3-yl)-1H-imidazol-4-yl)-3-fluorobenzamide]
4 | 10.8 | 13 |  | C[C@@H](Oc1nccc(-c2cnc([C@@H]3CC[C@@H]4CC(c5c(-n6cnnn6)ccc(Cl)c5F)=CC(=O)N43)[nH]2)c1F)c1ncco1 (single isomer, unassigned) [Example 141, (3*S,8a*R)-7-(3-chloro-2-fluoro-6-(1H-tetrazol-1-yl)phenyl)-3-(5-(3-fluoro-2-((*R)-1-(oxazol-2-yl)ethoxy)pyridin-4-yl)-1H-imidazol-2-yl)-2,3,8,8a-tetrahydroindolizin-5(1H)-one]
5 | 1.5 | 1.1 |  | O=C1C=C(c2c(-n3cnnn3)ccc(Cl)c2F)C[C@H]2CC[C@@H](c3ncc(-c4ccc5[nH]c(=O)[nH]c5c4)[nH]3)N12 (single isomer, unassigned) [Example 286]
6 | 54.1 | 71.5 |  | O=C1OCCN1c1ccc(-c2cnc([C@@H]3CCC4CC(c5c(-n6cnnn6)ccc(Cl)c5F)=CC(=O)N43)[nH]2)cc1 (stereo partly drawn) [Example 318, 3-(4(2-((3S)-7-(3-Chloro-2-fluoro-6-(1H-tetrazol-1-yl)phenyl)-5-oxo-1,2,3,5,8,8a-hexahydroindolizin-3-yl)-1H-imidazol-5-yl)phenyl)oxazolidin-2-one]
7 | 85.8 | 542 |  | O=C1C=C(c2c(-n3cnnn3)ccc(Cl)c2F)CC2CC[C@@H](c3nc(-c4cnn[nH]4)c[nH]3)N12 (stereo partly drawn) [Example 332, (3S)-3-(4-(1H-1,2,3-Triazol-5-yl)-1H-imidazol-2-yl)-7-(3-chloro-2-fluoro-6-(1H-tetrazol-1-yl)phenyl)-2,3,8,8a-tetrahydroindolizin-5(1H)-one]
8 | 29.1 | 22 |  | N#CC1(c2nccc(-c3cnc([C@@H]4CC[C@@H]5CC(c6c(-n7cnnn7)ccc(Cl)c6F)=CC(=O)N54)[nH]3)c2F)CC1 (single isomer, unassigned) [Example 139, 1-(4-(2-((3S,8a*R)-7-(3-chloro-2-fluoro-6-(1H-tetrazol-1-yl)phenyl)-5-oxo-1,2,3,5,8,8a-hexahydroindolizin-3-yl)-1H-imidazol-5-yl)-3-fluoropyridin-2-yl)cyclopropane-1-carbonitrile]
9 | 3.7 | 6 |  | O=C1C=C(c2c(-n3cnnn3)ccc(Cl)c2F)C[C@H]2CC[C@H](c3nc(F)c(-c4ccnc(-n5cncn5)c4F)[nH]3)N12 (single isomer, unassigned) [Example 92, 7-[3-Chloro-2-fluoro-6-(tetrazol-1-yl)phenyl]-3-[4-fluoro-5-[3-fluoro-2-(1,2,4-triazol-1-yl)-4-pyridyl]-1H-imidazol-2-yl]-2,3,8,8a-tetrahydro-1H-indolizin-5-one]
10 | 2.1 | 8.5 |  | O=C1C=C(c2c(-n3cnnn3)ccc(Cl)c2F)CC2CC[C@@H](c3nc(-c4ccnc(OCCO)c4)c[nH]3)N12 (single isomer, unassigned) [Example 9]
11 | 1.7 | 2.8 |  | O=C1C=C(c2c(-n3cnnn3)ccc(Cl)c2F)CC2CCC(c3ncc(-c4ccnc(-c5ccn[nH]5)c4)[nH]3)N12 (stereo not drawn) [Example 53, 3-(5-(2-(1H-pyrazol-5-yl)pyridin-4-yl)-1H-imidazol-2-yl)-7-(3-chloro-2-fluoro-6-(1H-tetrazol-1-yl)phenyl)-2,3,8,8a-tetrahydroindolizin-5(1H)-one]
12 | 0.9 | 1.1 |  | COc1ccc(-c2c[nH]c([C@@H]3CC[C@@H]4CC(c5c(-n6cnnn6)ccc(Cl)c5F)=CC(=O)N43)n2)c(NC(=O)C2CC2)c1 [Example 266, N-(2-(2-((3S,8aR)-7-(3-Chloro-2-fluoro-6-(1H-tetrazol-1-yl)phenyl)-5-oxo-1,2,3,5,8,8a-hexahydroindolizin-3-yl)-1H-imidazol-4-yl)-5-methoxyphenyl)cyclopropanecarboxamide]
13 |  | 9 | 1.2 | CNc1ccc(-c2cnc([C@@H]3CC[C@@H]4CC(c5c(-n6cnnn6)ccc(Cl)c5F)=CC(=O)N43)[nH]2)c(F)n1 (relative stereo) [Example 282, (3S,8aR)-7-(3-Chloro-2-fluoro-6-(1H-tetrazol-1-yl)phenyl)-3-(5-(2-fluoro-6-(methylamino)pyridin-3-yl)-1H-imidazol-2-yl)-2,3,8,8a-tetrahydroindolizin-5(1H)-one]
14 | 0.6 | 6.6 |  | CS(=O)(=O)Nc1cc(-c2[nH]c(C3CCC4CC(c5c(-n6cnnn6)ccc(Cl)c5F)=CC(=O)N43)nc2F)ccn1 (stereo not drawn) [Example 6, N-[4-[2-[7-[3-Chloro-2-fluoro-6-(tetrazol-1-yl)phenyl]-5-oxo-2,3,8,8a-tetrahydro-1H-indolizin-3-yl]-4-fluoro-1H-imidazol-5-yl]-2-pyridyl]methanesulfonamide]
15 | 0.9 | 2.5 |  | NC(=O)c1ccc(-c2nc([C@@H]3CC[C@@H]4CC(c5c(-n6cc(C(F)(F)F)nn6)ccc(Cl)c5F)=CC(=O)N43)[nH]c2Cl)s1 [Example 203, 5-(5-Chloro-2-((3S,8aR)-7-(3-chloro-2-fluoro-6-(4-(trifluoromethyl)-1H-1,2,3-triazol-1-yl)phenyl)-5-oxo-1,2,3,5,8,8a-hexahydroindolizin-3-yl)-1H-imidazol-4-yl)thiophene-2-carboxamide]
16 | 29.1 | 24.5 |  | NC(=O)c1cc(-c2cnc([C@@H]3CC[C@@H]4CC(c5c(-n6cc(C(F)(F)F)nn6)ccc(Cl)c5F)=CC(=O)N43)[nH]2)ccn1 [Example 204, 4-(2-((3S,8aR)-7-(3-Chloro-2-fluoro-6-(4-(trifluoromethyl)-1H-1,2,3-triazol-1-yl)phenyl)-5-oxo-1,2,3,5,8,8a-hexahydroindolizin-3-yl)-1H-imidazol-5-yl)picolinamide]
17 | 11.1 | 8.9 |  | O=C1C=C(c2c(-n3cnnn3)ccc(Cl)c2F)C[C@H]2CC[C@@H](c3ncc(-c4ccnc(-n5ccnn5)c4)[nH]3)N12 [Example 85, (3S,8aR)-7-[3-chloro-2-fluoro-6-(tetrazol-1-yl)phenyl]-3-[5-[2-(triazol-1-yl)-4-pyridyl]-1H-imidazol-2-yl]-2,3,8,8a-tetrahydro-1H-indolizin-5-one]
18 | 8.6 | 33.2 |  | COCCNC(=O)c1nccc(-c2cnc([C@@H]3CC[C@@H]4CC(c5c(-n6cnnn6)ccc(Cl)c5F)=CC(=O)N43)[nH]2)c1F [Example 180, 4-(2-((3S,8aR)-7-(3-chloro-2-fluoro-6-(1H-tetrazol-1-yl)phenyl)-5-oxo-1,2,3,5,8,8a-hexahydroindolizin-3-yl)-1H-imidazol-5-yl)-3-fluoro-N-(2-methoxyethyl)picolinamide]
19 | 12.3 | 122 |  | O=C(c1nccc(-c2cnc([C@@H]3CC[C@@H]4CC(c5c(-n6cnnn6)ccc(Cl)c5F)=CC(=O)N43)[nH]2)c1F)N1CC(F)(F)C1 [Example 94, (3S,8aR)-7-(3-Chloro-2-fluoro-6-(1H-tetrazol-1-yl)phenyl)-3-(5-(2-(3,3-difluoroazetidine-1-carbonyl)-3-fluoropyridin-4-yl)-1H-imidazol-2-yl)-2,3,8,8a-tetrahydroindolizin-5(1H)-one]
20 | 3.8 | 4.4 |  | O=C1C=C(c2c(-n3cnnn3)ccc(Cl)c2F)C[C@H]2CC[C@@H](c3nc(-c4cccc5[nH]ncc45)c[nH]3)N12 [Example 51, (3S,8aR)-3-(4-(1H-indazol-4-yl)-1H-imidazol-2-yl)-7-(3-chloro-2-fluoro-6-(1H-tetrazol-1-yl)phenyl)-2,3,8,8a-tetrahydroindolizin-5(1H)-one]
21 | 1.5 | 15.9 |  | O=C1C=C(c2c(-n3cnnn3)ccc(Cl)c2F)C[C@H]2CC[C@H](c3ncc(-c4c[nH]nc4C(F)(F)F)[nH]3)N12 (single isomer, unassigned) [Example 239, (3*R,8a*R)-7-(3-Chloro-2-fluoro-6-(1H-tetrazol-1-yl)phenyl)-3-(5-(3-(trifluoromethyl)-1H-pyrazol-4-yl)-1H-imidazol-2-yl)-2,3,8,8a-tetrahydroindolizin-5(1H)-one]
